Experimental data taken from patent publication US8859596B2, “Compounds as cannabinoid receptor ligands” (priority 2008, dated 2014).
Read-outs that look alike come from different tables or passages of the source.

Assays:
rat CB1 = rat CB1 (Rattus norvegicus (Rat), UniProt P20272); test: CB1 cyclase functional assay (HitHunter cAMP); format: cell-based; conditions: HEK cells, forskolin 37 μM; read-out: rCB1 cyclase (EC50)
Method: (§1) The cyclase functional assays were performed using the HitHunter™ cAMP assay kit from DiscoveRx (Fremont, Calif.) according to vendor's protocol. Briefly, HEK cells expressing CB2 or CB1 receptors (rat or human) were detached using cell dissociation buffer (Invitrogen, Carlsbad, Calif.), dispersed and placed in suspension at 10,000 cells per well in 96 well plates prior to the assay. Cell suspensions were incubated at 37° C. for 20 min with variable concentrations of test ligands and or 10 μM CP 55,940-positive control in the presence of a fixed concentration of forskolin (18 μM for rat CB2 and 37 μM for rat CB1) in Dulbescco's phosphate-buffered saline (Invitrogen, Carlsbad, Calif.) supplemented with bovine serum albumin (0.01% final concentration). The reactions were terminated by the addition of lysis buffer and the luminescence was detected following the procedure according to the manufacturer's instructions. EC50 values were calculated using sigmoidal dose-response curve fitting from Prism (GraphPad).

rat CB2 [1] = target: T1, rat CB2 (Rattus norvegicus (Rat), UniProt Q9QZN9); test: rat CB2 radioligand binding assay ([3H]CP 55,940 competition)
Method: (§2) The CB1 and CB2 radioligand binding assays described herein are utilized to ascertain the affinity of compounds of the present application for binding to CB2 relative to CB1 receptors.
HEK293 cells stably expressing rat CB2 receptors were grown until a confluent monolayer was formed. Briefly, the cells were harvested and homogenized in TE buffer (50 mM Tris-HCl, 1 mM MgCl2, and 1 mM EDTA) using a polytron for 2×10 second bursts in the presence of protease inhibitors, followed by centrifugation at 45,000×g for 20 minutes. The final membrane pellet was re-homogenized in storage buffer (50 mM Tris-HCl, 1 mM MgCl2, and 1 mM EDTA and 10% sucrose) and frozen at −78° C. until used. Saturation binding reactions were initiated by the addition of membrane preparation (protein concentration of 20 μg/well for rat CB2) into wells of a deep well plate containing [^3H]CP 55,940 (120 Ci/mmol, a nonselective CB agonist commercially available from Tocris) in assay buffer (50 mM Tris, 2.5 mM EDTA, 5 mM MgCl2, and 0.5 mg/mL fatty acid free BSA, pH 7.4). After 45 min incubation at 30° C., binding reaction was terminated by the addition of 300 μl/well of cold assay buffer followed by rapid vacuum filtration through a UniFilter-96 GF/C filter plates (pre-soaked in 1 mg/mL BSA for 2 hours). The bound activity was counted in a TopCount using Microscint-20. Saturation experiments were conducted with twelve concentrations of [^3H]CP 55,940 ranging from 0.01 to 8 nM. Competition experiments were conducted with 0.5 nM [^3H]CP 55,940 and five concentrations of displacing ligands selected from the range of 0.01 nM to […] addition of 10 μM unlabeled CP 55,940 (Tocris, Ellisville, Mo.) was used to assess nonspecific binding.

human CB2 receptors = human CB2 receptors (Homo sapiens (Human), UniProt P34972); test: human CB2 radioligand binding assay ([3H]CP 55,940 competition)
Method: as §2
HEK293 cells stably expressing human CB2 receptors were grown until a confluent monolayer was formed. Briefly, the cells were harvested and homogenized in TE buffer (50 mM Tris-HCl, 1 mM MgCl2, and 1 mM EDTA) using a polytron for 2×10 second bursts in the presence of protease inhibitors, followed by centrifugation at 45,000×g for 20 minutes. The final membrane pellet was re-homogenized in storage buffer (50 mM Tris-HCl, 1 mM MgCl2, and 1 mM EDTA and 10% sucrose) and frozen at −78° C. until used. Saturation binding reactions were initiated by the addition of membrane preparation (protein concentration of 5 μg/well for human CB2) into wells of a deep well plate containing [^3H]CP 55,940 (120 Ci/mmol, a nonselective CB agonist commercially available from Tocris) in assay buffer (50 mM Tris, 2.5 mM EDTA, 5 mM MgCl2, and 0.5 mg/mL fatty acid free BSA, pH 7.4). After 90 min incubation at 30° C., binding reaction was terminated by the addition of 300 μL/well of cold assay buffer followed by rapid vacuum filtration through a UniFilter-96 GF/C filter plates (pre-soaked in 1 mg/mL BSA for 2 hours). The bound activity was counted in a TopCount using Microscint-20. Saturation experiments were conducted with twelve concentrations of [^3H]CP 55,940 ranging from 0.01 to 8 nM. Competition experiments were conducted with 0.5 nM [^3H]CP 55,940 and five concentrations (0.01 nM to 10 μM) of displacing ligands. The addition of 10 μM unlabeled CP 55,940 (Tocris, Ellisville, Mo.) was used to assess nonspecific binding.

rat CB2 [2] = target: T1, rat CB2; test: CB2 cyclase functional assay (HitHunter cAMP); format: cell-based; conditions: HEK cells, forskolin 18 μM
Method: as §1

[3] = HEK293 membranes, 0.5 nM [3H]CP 55,940, read-out: rat CB2 (Ki)
[4] = HEK293 membranes, 0.5 nM [3H]CP 55,940, read-out: human CB2 (Ki)

Sequence of human CB2 receptors (P34972 whole entry): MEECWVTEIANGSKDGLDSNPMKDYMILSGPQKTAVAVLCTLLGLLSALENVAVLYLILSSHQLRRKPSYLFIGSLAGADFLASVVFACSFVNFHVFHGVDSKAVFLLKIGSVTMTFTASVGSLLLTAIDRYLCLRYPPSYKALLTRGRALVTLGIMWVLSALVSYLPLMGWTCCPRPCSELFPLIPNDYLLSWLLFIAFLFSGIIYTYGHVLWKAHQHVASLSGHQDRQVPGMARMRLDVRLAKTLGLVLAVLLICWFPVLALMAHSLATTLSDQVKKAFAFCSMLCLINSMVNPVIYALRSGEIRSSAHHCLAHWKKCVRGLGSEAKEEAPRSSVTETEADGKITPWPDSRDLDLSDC
T1 sequence (Q9QZN9 whole entry): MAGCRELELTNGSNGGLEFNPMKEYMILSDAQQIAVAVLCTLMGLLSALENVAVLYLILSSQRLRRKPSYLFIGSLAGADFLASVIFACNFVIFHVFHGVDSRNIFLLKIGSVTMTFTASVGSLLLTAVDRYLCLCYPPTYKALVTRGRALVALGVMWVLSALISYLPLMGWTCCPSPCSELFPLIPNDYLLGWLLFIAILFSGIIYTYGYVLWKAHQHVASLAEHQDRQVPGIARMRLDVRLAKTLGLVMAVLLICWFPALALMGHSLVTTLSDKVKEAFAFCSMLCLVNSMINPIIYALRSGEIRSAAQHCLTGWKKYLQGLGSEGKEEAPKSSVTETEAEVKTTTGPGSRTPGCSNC

Compound | EC50 (rat CB1) | Ki (rat CB2 [1]; [3]) | Ki (human CB2 receptors; [4]) | EC50 (rat CB2 [2]) | Ki (rat CB2 [1]) | Ki (human CB2 receptors)
CC(C)(C)NOc1ccc(C(F)(F)F)cc1C(=O)/N=c1\sc(C(C)(C)C)nn1C[C@H]1CCCO1 [Example 153, 2-[(tert-butylamino)oxy]-N-[(2Z)-5-tert-butyl-3-[(2R)-tetrahydrofuran-2-ylmethyl]-1,3,4-thiadiazol-2(3H)-ylidene]-5-(trifluoromethyl)benzamide] | > 27000 nM | 3.2 nM | 10 nM | 0.24 nM |  | 
CC(C)(C)NOc1ccc(C(F)(F)F)cc1C(=O)/N=c1\sc(C(C)(C)C)nn1CCCC#N [Example 151, 2-[(tert-butylamino)oxy]-N-[(2Z)-5-tert-butyl-3-(3-cyanopropyl)-1,3,4-thiadiazol-2(3H)-ylidene]-5-(trifluoromethyl)benzamide] | 938 nM | 1.2 nM | 4.3 nM | 0.13 nM |  | 
CCCCn1nc(C(C)(C)C)s/c1=N\C(=O)c1cc(C(F)(F)F)ccc1ON=C(N)C(C)(C)C [Example 166, 2-({[1-amino-2,2-dimethylpropylidene]amino}oxy)-N-[(2Z)-3-butyl-5-tert-butyl-1,3,4-thiadiazol-2(3H)-ylidene]-5-(trifluoromethyl)benzamide] | 6960 nM | 43 nM | 65 nM | 3.14 nM |  | 
CCCCn1nc(C(C)(C)C)s/c1=N\C(=O)c1cc(C(F)(F)F)ccc1ONC(C)=O [Example 154, 2-[(acetylamino)oxy]-N-[(2Z)-3-butyl-5-tert-butyl-1,3,4-thiadiazol-2(3H)-ylidene]-5-(trifluoromethyl)benzamide] | 58 nM | 1 nM | 1 nM | 1.5 nM |  | 
CCCCn1nc(C(C)(C)C)s/c1=N\C(=O)c1cc(C(F)(F)F)ccc1ON=C(C)C(F)(F)F [Example 172, N-[(2Z)-3-butyl-5-tert-butyl-1,3,4-thiadiazol-2(3H)-ylidene]-5-(trifluoromethyl)-2-({[2,2,2-trifluoro-1-methylethylidene]amino}oxy)benzamide] | > 27000 nM | 60 nM | 52 nM | 28 nM |  | 
CC(C)(C)NOc1ccc(C(F)(F)F)cc1C(=O)/N=c1\sc(C(C)(C)C)nn1CC1CCC1 [Example 165, 2-[(tert-butylamino)oxy]-N-[(2Z)-5-tert-butyl-3-(cyclobutylmethyl)-1,3,4-thiadiazol-2(3H)-ylidene]-5-(trifluoromethyl)benzamide] | 925 nM | 0.8 nM | 2.8 nM | 0.93 nM |  | 
CCCCn1/c(=N/C(=O)c2cc(C(F)(F)F)ccc2NNC(=O)c2cccnc2)cc(C(C)(C)C)n1C [Example 199, N-[(3E)-2-butyl-5-tert-butyl-1-methyl-1,2-dihydro-3H-pyrazol-3-ylidene]-2-[2-(pyridin-3-ylcarbonyl)hydrazino]-5-(trifluoromethyl)benzamide] |  | 2.2 nM | 2.5 nM |  |  | 
CC(C)(C)NOc1ccc(C(F)(F)F)cc1C(=O)/N=c1\sc(C(C)(C)C)nn1CC1CC1 [Example 163, 2-[(tert-butylamino)oxy]-N-[(2Z)-5-tert-butyl-3-(cyclopropylmethyl)-1,3,4-thiadiazol-2(3H)-ylidene]-5-(trifluoromethyl)benzamide] |  | 3 nM | 16 nM |  |  | 
CCCCn1nc(C(C)(C)C)s/c1=N\C(=O)c1cc(C(F)(F)F)ccc1ON=C(N)C(=O)OCC [Example 176, ethyl amino {[2-({[(2Z)-3-butyl-5-tert-butyl-1,3,4-thiadiazol-2(3H)-ylidene]amino}carbonyl)-4-(trifluoromethyl)phenoxy]imino}acetate] |  | 1.7 nM | 6.1 nM |  |  | 
CCCCn1nc(C(C)(C)C)s/c1=N\C(=O)c1cc(C(F)(F)F)ccc1ON=C(N)c1ccccn1 [Example 196, 2-({[amino(pyridin-2-yl)methylene]amino}oxy)-N-[(2Z)-3-butyl-5-tert-butyl-1,3,4-thiadiazol-2(3H)-ylidene]-5-(trifluoromethyl)benzamide] |  | 4.1 nM | 18 nM |  |  | 
Cn1c(C(C)(C)C)c/c(=N\C(=O)c2cc(C#N)ccc2ONC(C)(C)C)n1C[C@H]1CCCO1 [Example 161, 2-[(tert-butylamino)oxy]-N-{(3E)-5-tert-butyl-1-methyl-2-[(2R)-tetrahydrofuran-2-ylmethyl]-1,2-dihydro-3H-pyrazol-3-ylidene}-5-cyanobenzamide] |  | 11 nM | 209 nM |  |  | 
Cn1c(C(C)(C)C)c/c(=N\C(=O)c2cc(C(F)(F)F)ccc2ONC(C)(C)C)n1C[C@H]1CCCO1 [Example 142, 2-[(tert-butylamino)oxy]-N-{(3E)-5-tert-butyl-1-methyl-2-[(2R)-tetrahydrofuran-2-ylmethyl]-1,2-dihydro-3H-pyrazol-3-ylidene}-5-(trifluoromethyl)benzamide] | > 27000 nM |  |  |  | 9.4 nM | 24 nM
CCCCn1nc(C(C)(C)C)s/c1=N\C(=O)c1cc(C(F)(F)F)ccc1ON=C(N)C1CC1 [Example 188, 2-({[amino(cyclopropyl)methylene]amino}oxy)-N-[(2Z)-3-butyl-5-tert-butyl-1,3,4-thiadiazol-2(3H)-ylidene]-5-(trifluoromethyl)benzamide] |  | 0.9 nM | 2.5 nM |  |  | 
CCCCn1nc(C(C)(C)C)s/c1=N\C(=O)c1cc(C(F)(F)F)ccc1NNC(=O)C(C)(C)C [Example 193, N-[(2Z)-3-butyl-5-tert-butyl-1,3,4-thiadiazol-2(3H)-ylidene]-2-[2-(2,2-dimethylpropanoyl)hydrazino]-5-(trifluoromethyl)benzamide] |  | 0.5 nM | 0.4 nM |  |  | 
CCCCn1nc(C(C)(C)C)s/c1=N\C(=O)c1cc(C(F)(F)F)ccc1ON=C(N)CC [Example 186, 2-({[1-aminopropylidene]amino}oxy)-N-[(2Z)-3-butyl-5-tert-butyl-1,3,4-thiadiazol-2(3H)-ylidene]-5-(trifluoromethyl)benzamide] |  | 2.7 nM | 5.1 nM |  |  | 
CCCCn1nc(C(C)(C)C)s/c1=N\C(=O)c1cc(C(F)(F)F)ccc1/N=N/C(C)(C)C [Example 148, N-[(2Z)-3-butyl-5-tert-butyl-1,3,4-thiadiazol-2(3H)-ylidene]-2-[(E)-tert-butyldiazenyl]-5-(trifluoromethyl)benzamide] |  | 15 nM | 6.2 nM |  |  | 
CCCCn1/c(=N/C(=O)c2cc(C(F)(F)F)ccc2ONC(C)(C)C)cc(C(C)(C)C)n1C [Example 149, 2-[(tert-butylamino)oxy]-N-[(3E)-2-butyl-5-tert-butyl-1-methyl-1,2-dihydro-3H-pyrazol-3-ylidene]-5-(trifluoromethyl)benzamide] |  |  |  |  | 5.5 nM | 77 nM
CCCCn1nc(C(C)(C)C)s/c1=N\C(=O)c1cc(C(F)(F)F)ccc1ON=C(N)c1ccncc1 [Example 203, 2-({[amino(pyridin-4-yl)methylene]amino}oxy)-N-[(2Z)-3-butyl-5-tert-butyl-1,3,4-thiadiazol-2(3H)-ylidene]-5-(trifluoromethyl)benzamide] |  | 33 nM | 68 nM |  |  | 
